# Reference: patent publication US9394297B2, “Amides as pim inhibitors” (AMGEN INC., priority 2012, dated 2016)
# Where two headings read alike, the source gives them in different places.
# Assays:
# [1] = system: KMS-12-BM myeloma cell line; test: Pim KMS-12 cell assay (phospho-BAD S112 / total BAD, MSD)
# Pim-1 = Pim-1 (Homo sapiens (Human), UniProt P11309); test: Pim-Mn enzyme assay (HTRF, 384-well), Pim-1; assay type: biochemical; settings: read-out: Pim-1-Mn IC50 IP
# Pim-2 = Pim-2 (Homo sapiens (Human), UniProt Q9P1W9); test: Pim-Mn enzyme assay (HTRF, 384-well), Pim-2; assay type: biochemical; settings: Pim-2 enzyme 0.5 pM, ATP 1.5 μM, BAD (S112) 0.5 μM, HTRF, 22-point curve; read-out: Pim-2-Mn IC50 IP
# KMS-12-BM cell lines = test: KMS12 #2 flow cytometry assay (phospho-BAD Ser112); assay type: cell-based; settings: Homo sapiens, 110 min; KMS-12-BM cells, pBAD Ser112 by flow cytometry, 110 min with compound; read-out: KMS-12-Flow IC50 IP
# [2] = Homo sapiens, KMS-12-BM, read-out: KMS-12-BM IC50 IP, KMS-12-BM cells, phospho-BAD (S112) vs total BAD, 1 hour 50 min with compound
# [3] = Pim-1 enzyme 5 pM, ATP 1.5 μM, BAD (S112) 0.5 μM, HTRF, 22-point curve
# [4] = read-out: KMS-12-BM IC50 IP, KMS-12-BM cells, phospho-BAD (S112) vs total BAD, 1 hour 50 min with compound
# Chain of Pim-1 (P11309 whole entry): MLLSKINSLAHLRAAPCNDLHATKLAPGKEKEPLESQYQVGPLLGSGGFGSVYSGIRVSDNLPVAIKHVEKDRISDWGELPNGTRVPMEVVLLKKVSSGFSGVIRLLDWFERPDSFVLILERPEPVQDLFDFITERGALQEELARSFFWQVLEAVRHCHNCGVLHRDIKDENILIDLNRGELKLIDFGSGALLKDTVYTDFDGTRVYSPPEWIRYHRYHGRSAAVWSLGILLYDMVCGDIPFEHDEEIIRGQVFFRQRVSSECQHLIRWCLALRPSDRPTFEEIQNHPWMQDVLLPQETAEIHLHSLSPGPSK
# Chain of Pim-2 (Q9P1W9 whole entry): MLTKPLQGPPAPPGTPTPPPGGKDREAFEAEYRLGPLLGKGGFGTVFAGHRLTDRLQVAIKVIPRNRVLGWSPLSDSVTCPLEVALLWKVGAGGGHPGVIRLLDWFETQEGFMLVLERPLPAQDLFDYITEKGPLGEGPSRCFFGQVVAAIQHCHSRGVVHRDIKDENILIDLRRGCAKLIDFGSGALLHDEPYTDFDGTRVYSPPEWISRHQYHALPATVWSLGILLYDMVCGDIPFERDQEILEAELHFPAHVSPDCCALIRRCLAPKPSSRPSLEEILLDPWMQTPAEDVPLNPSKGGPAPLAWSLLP
SMILES,"IC50 [1, 2] [nM]",IC50 (Pim-1; [3]) [nM],IC50 (Pim-2) [nM],also measured
"Cc1cc2cccc(-c3cc4c([nH]3)CCNC4=O)c2nc1Oc1ccccc1 [Example 104, 2-(3-methyl-2-phenoxyquinolin-8-yl)-6,7-dihydro-1H-pyrrolo[3,2-c]pyridin-4(5H)-one]",5230,,,
"Cc1nc2cccc(-c3cc4c([nH]3)CCNC4=O)c2nc1NC1CCCCC1O (racemic) [Example 205, 2-(3-((2-hydroxycyclohexyl)amino)-2-methylquinoxalin-5-yl)-6,7-dihydro-1H-pyrrolo[3,2-c]pyridin-4(5H)-one]",1140,4.9,4.5,
"CC1(C)CCCCN1c1cnc2cccc(-c3cc4c([nH]3)CCNC4=O)c2n1 [Example 212, 2-(3-(2,2-dimethylpiperidin-1-yl)quinoxalin-5-yl)-6,7-dihydro-1H-pyrrolo[3,2-c]pyridin-4(5H)-one]",538,1.3,2.3,
CC1(C)CCCN1c1cnc2cccc(-c3cc4c([nH]3)CCNC4=O)c2n1 [Example 216],225,,,
"Cc1nc2cccc(-c3cc4c([nH]3)CCNC4=O)c2nc1NC1(C)CCCC1 [Example 67, 2-(2-methyl-3-((1-methylcyclopentyl)amino)-5-quinoxalinyl)-1,5,6,7-tetrahydro-4H-pyrrolo[3,2-c]pyridin-4-one]",167,0.4,0.6,
"Cc1nc2cccc(-c3cc4c([nH]3)CCNC4=O)c2nc1N[C@H]1CCC[C@@H](N)C1 (single isomer, unassigned) [Example 140, 2-(3-((cis-3-aminocyclohexyl)amino)-2-methylquinoxalin-5-yl)-6,7-dihydro-1H-pyrrolo[3,2-c]pyridin-4(5H)-one]",1240,,,
"CC1(C)CNCCN1c1cnc2cccc(-c3cc4c([nH]3)CCNC4=O)c2n1 [Example 217, 2-(3-(2,2-dimethylpiperazin-1-yl)quinoxalin-5-yl)-6,7-dihydro-1H-pyrrolo[3,2-c]pyridin-4(5H)-one]",933,2,5.3,
"CC(c1ccccc1)c1ccc2cccc(-c3cc4c([nH]3)CCNC4=O)c2n1 (single isomer, unassigned) [Example 116, 2-(2-(1-phenylethyl)quinolin-8-yl)-6,7-dihydro-1H-pyrrolo[3,2-c]pyridin-4(5H)-one]",7540,,,
"Cc1nc2cccc(-c3cc4c([nH]3)CCNC4=O)c2nc1NC1(C)CCOCC1 [Example 203, 2-(2-methyl-3-((4-methyltetrahydro-2H-pyran-4-yl)amino)quinoxalin-5-yl)-6,7-dihydro-1H-pyrrolo[3,2-c]pyridin-4(5H)-one]",232,1.2,5.6,
"Cc1nc2cccc(-c3cc4c([nH]3)CCNC4=O)c2nc1NC1CCCOC1 (racemic) [Example 198, rac-2-(2-methyl-3-((tetrahydro-2H-pyran-3-yl)amino)quinoxalin-5-yl)-6,7-dihydro-1H-pyrrolo[3,2-c]pyridin-4(5H)-one]",307,,,
"Cc1nc2cccc(-c3cc4c([nH]3)CCNC4=O)c2nc1NC1(C)CC1 [Example 202, 2-(2-methyl-3-((1-methylcyclopropyl)amino)quinoxalin-5-yl)-6,7-dihydro-1H-pyrrolo[3,2-c]pyridin-4(5H)-one]",41.3,0.3,0.3,
"Cc1nc2cccc(-c3cc4c(=O)[nH]cnc4[nH]3)c2nc1NC1CCC1 [Example 260, 6-(3-(cyclobutylamino)-2-methylquinoxalin-5-yl)-3H-pyrrolo[2,3-d]pyrimidin-4(7H)-one]",243,1.6,1.23,
"Cc1nc2cccc(-c3cc4c([nH]3)CCNC4=O)c2nc1NC(C)(C)CCO [Example 279, 2-(3-((3-hydroxy-1,1-dimethylpropyl)amino)-2-methyl-5-quinoxalinyl)-1,5,6,7-tetrahydro-4H-pyrrolo[3,2-c]pyridin-4-one]",252,,,
"O=C1NCCc2[nH]c(-c3cccc4ccc(Nc5c(F)cccc5F)nc34)cc21 [Example 175, 2-(2-((2,6-difluorophenyl)amino)quinolin-8-yl)-6,7-dihydro-1H-pyrrolo[3,2-c]pyridin-4(5H)-one]",1510,,,
"Cc1nc2cccc(-c3cc4c([nH]3)CCNC4=O)c2nc1NC(C)C(C)C (racemic) [Example 73, 2-(3-4(±)-1,2-dimethylpropyl)amino)-2-methyl-5-quinoxalinyl)-1,5,6,7-tetrahydro-4H-pyrrolo[3,2-c]pyridin-4-one]",107,,,
"CC1CNC(=O)c2cc(-c3cccc4ccc(Nc5ccccc5)nc34)[nH]c21 (racemic) [Example 238, rac-7-methyl-2-(2-(phenylamino)quinolin-8-yl)-6,7-dihydro-1H-pyrrolo[3,2-c]pyridin-4(5H)-one]",1280,,,

SMILES,"IC50 [1, 2] [nM]",IC50 (Pim-1; [3]) [nM],IC50 (Pim-2) [nM],also measured
"Nc1nc2cccc(-c3cc4c([nH]3)CCNC4=O)c2nc1Oc1ccccc1 [Example 36, 2-(2-amino-3-phenoxyquinoxalin-5-yl)-6,7-dihydro-1H-pyrrolo[3,2-c]pyridin-4(5H)-one]",209,,,
"Cc1nc2cccc(-c3cc4c([nH]3)CCNC4=O)c2nc1NC1CCCOC1 (single isomer, unassigned) [Example 209, 2-(2-methyl-3-((tetrahydro-2H-pyran-3-yl)amino)quinoxalin-5-yl)-6,7-dihydro-1H-pyrrolo[3,2-c]pyridin-4(5H)-one]",,,,"IC50 [1, 4]: 268 nM"
"CC1CNC(=O)c2cc(-c3cccc4ccc(Nc5ccccc5)nc34)[nH]c21 (single isomer, unassigned) [Example 30, 7-methyl-2-(2-(phenylamino)quinolin-8-yl)-6,7-dihydro-1H-pyrrolo[3,2-c]pyridin-4(5H)-one]",,,,"IC50 [1, 4]: 5890 nM"
"CC1CNC(=O)c2cc(-c3cccc4ccc(Nc5ccccc5)nc34)[nH]c21 (single isomer, unassigned) [Example 29, 7-methyl-2-(2-(phenylamino)quinolin-8-yl)-6,7-dihydro-1H-pyrrolo[3,2-c]pyridin-4(5H)-one]",,,,"IC50 [1, 4]: 737 nM"
"CC[C@H]1CNC(=O)c2cc(-c3cccc4ccc(Nc5ccccc5)nc34)[nH]c21 [Example 239, (S)-7-ethyl-2-(2-(phenylamino)quinolin-8-yl)-6,7-dihydro-1H-pyrrolo[3,2-c]pyridin-4(5H)-one]",1850,,,
"CC(C)(C)Nc1nc2c(-c3cc4c([nH]3)CCNC4=O)cccc2nc1C=O [Example 282, 3-(tert-butylamino)-5-(4-oxo-4,5,6,7-tetrahydro-1H-pyrrolo[3,2-c]pyridin-2-yl)-2-quinoxalinecarbaldehyde]",3440,5.3,,
"CC[C@@H]1CNC(=O)c2cc(-c3cccc4ccc(Nc5ccccc5)nc34)[nH]c21 [Example 25, (R)-7-ethyl-2-(2-(phenylamino)quinolin-8-yl)-6,7-dihydro-1H-pyrrolo[3,2-c]pyridin-4(5H)-one]",4560,,,
"O=C1NCCc2[nH]c(-c3cccc4ccc(N[C@H]5CC[C@H](O)CC5)nc34)cc21 [Example 82, 2-(2-(((1R,4R)-4-hydroxycyclohexyl)amino)quinolin-8-yl)-6,7-dihydro-1H-pyrrolo[3,2-c]pyridin-4(5H)-one]",4620,,,
"Cc1nc2cccc(-c3cc4c([nH]3)CCNC4=O)c2nc1NC(C)(C)C(N)=O [Example 62, 2-methyl-N-2-(3-methyl-8-(4-oxo-4,5,6,7-tetrahydro-1H-pyrrolo[3,2-c]pyridin-2-yl)-2-quinoxalinyl)alaninamide]",2610,,,
"Cc1nc2cccc(-c3cc4c([nH]3)CCNC4=O)c2nc1CC(C)(C)C [Example 272, 2-(3-(2,2-dimethylpropyl)-2-methyl-5-quinoxalinyl)-1,5,6,7-tetrahydro-4H-pyrrolo[3,2-c]pyridin-4-one]",1530,,7.8,
"Cc1nc2cccc(-c3cc4c([nH]3)CCNC4=O)c2nc1N[C@H]1C[C@@H](NCCS(C)(=O)=O)C1 [Example 441, 2-(2-Methyl-3-((cis-3-((2-(methylsulfonyl)ethyl)amino)cyclobutyl)amino)quinoxalin-5-yl)-6,7-dihydro-1H-pyrrolo[3,2-c]pyridin-4(5H)-one]",,0.7,1.3,IC50 (KMS-12-BM cell lines): > 40000 nM
"CCC1CNC(=O)c2cc(-c3cccc4ccc(Nc5ccccc5)nc34)[nH]c21 (racemic) [Example 24, rac-7-ethyl-2-(2-(phenylamino)quinolin-8-yl)-6,7-dihydro-1H-pyrrolo[3,2-c]pyridin-4(5H)-one]",1410,,,
"Cc1nc2cccc(-c3cc4c([nH]3)CCNC4=O)c2nc1NC(=N)N [Example 447, 1-(3-methyl-8-(4-oxo-4,5,6,7-tetrahydro-1H-pyrrolo[3,2-c]pyridin-2-yl)quinoxalin-2-yl)guanidine]",,133,139,IC50 (KMS-12-BM cell lines): 2630 nM
"Cc1nc2cccc(-c3cc4c([nH]3)CCNC4=O)c2nc1NC1CCCOC1 (single isomer, unassigned) [Example 208, 2-(2-methyl-3-((tetrahydro-2H-pyran-3-yl)amino)quinoxalin-5-yl)-6,7-dihydro-1H-pyrrolo[3,2-c]pyridin-4(5H)-one]",366,,,
"Cc1nc2cccc(-c3cc4c([nH]3)CNC4=O)c2nc1NC1(C)CC1 [Example 357, 2-(2-Methyl-3-((1-methylcyclopropyl)amino)quinoxalin-5-yl)-5,6-dihydropyrrolo[3,4-b]pyrrol-4(1H)-one]",,,0.57,IC50 (Pim-1): 0.463 nM; IC50 (KMS-12-BM cell lines): 15 nM
